Laboratory results: patent publication US6855828B1, “Detection of hypoxia” (The Trustees of the University of Pennsylvania, priority 1992, dated 2005)
“And” between values parts separate entries of the source, which are not always exact repeats. Identical values can stand only once.

Experiments:
[1] = Distribution of [^18F]-EF1 in murine organs and tissues; assay type: in vivo, mice; design: Distribution in murine tissues, Kidney / Distribution in murine tissues, Heart / Distribution in murine tissues, Muscle / Distribution in murine tissues, Liver / Distribution in murine tissues, Spleen: unit not given beside the values
Protocol: (§1) To measure the distribution of radioactive drug in various organs and tissues, the solution of [^18F]-EF1 in saline buffer was injected I/V into 2 male Buffalo rats. Animals was sacrificed and the samples of tissues were collected and weighted. The radioactivity of samples was measured by γ-counter and corrected for weight and the time of decay.
The distribution of radioactive drug in various murine organs and tissues was measured similarly to the previous example. [^18F]-EF1 was injected into 4 mice, which were sacrificed after 5 and 90 minutes and the radioactivity of tissues was measured.

Morris 7777 hepatoma = assay: PET image of tumor-bearing rat treated with [^18F]-EF1; assay type: in vivo; details: 150 minutes post injection
Protocol: FIG. 4 illustrates a PET image of a tumor-bearing rat treated with 18-F-labeled EF1 (2-(2-nitro-1H-imidazol-1-yl)-N-3-monofluoropropyl) acetamide, 150 minutes post injection.
(§2) Q7 cells were obtained from the American Type Culture Collection (ATCC). They were maintained in exponential growth by transfers at 3.5 day intervals with standard culture conditions. Growth medium was Eagle's MEM supplemented with 15% fetal calf serum and standard penicillin and streptomycin.
(§3) All animal studies conformed to the regulations of the University of Pennsylvania Institutional Animal Care and Use Committee. Male Buffalo rats (Harlan Sprague Dawley, Indianapolis, Ind., USA) were used for all studies. Donor tumors were created by injecting 1 million Q7 cells subcutaneously into the thigh region. The average growth time to achieve a 1 cm diameter tumor was 21 days. Tumors of less than 2 g were used in the experiments.
It is believed that this is the first PET image of a rodent tumor where substantial image modifications to eliminate gut clearance effects have not been necessary.

[2] = Tissue distribution of [^18F]-EF1 in rats bearing tumors (γ-counter); assay type: in vivo; details: tumor-bearing rat, I/V
Excerpt: as §2, §3, §1
In particular, note that the density of radioactive counts closely parallels the findings from the image analysis. Results from 2 animals, are shown. PET and immunohistochemical images from both animals were very similar (data not shown)

[3] = tested on: existing antibodies (to EF5 and EF3); assay: Affinity of existing antibodies towards EF1; assay type: binding

SMILES: O=C(Cn1ccnc1[N+](=O)[O-])NCCCF [[^18F]-EF1, (2-(2-nitro-1H-imidazol-1-yl)-N-3-monofluoropropyl) acetamide]
- Density of label in mouse-brain tissue compared with other organs ([1]; early times): substantially lower densities
- Distribution in murine tissues, Blood ([1]; mouse, 5 minutes): 0.041 and 0.038
- Distribution in murine tissues, Brain ([1]; mouse, 5 minutes): 0.004
- Distribution in murine tissues, Cecum ([1]; mouse, 5 minutes, Cecum): 0.022 and 0.023
- Distribution in murine tissues, Heart ([1]; mouse, 5 minutes): 0.041 and 0.052
- Distribution in murine tissues, Intestine ([1]; mouse, 5 minutes): 0.037 and 0.039
- Distribution in murine tissues, Kidney ([1]; mouse, 5 minutes): 0.072 and 0.044
- Distribution in murine tissues, Liver ([1]; mouse, 5 minutes): 0.064 and 0.050
- Distribution in murine tissues, Lung ([1]; mouse, 5 minutes): 0.052 and 0.046
- Distribution in murine tissues, Muscle ([1]; mouse, 5 minutes): 0.038 and 0.031
- Distribution in murine tissues, Spleen ([1]; mouse, 5 minutes): 0.034 and 0.035
- Distribution in murine tissues, Stomach ([1]; mouse, 5 minutes): 0.013
- Distribution in murine tissues, Tibia ([1]; mouse, 5 minutes): 0.045 and 0.042
- Distribution in murine tissues, Urine ([1]; mouse, 5 minutes): 0.045
- Distribution in murine tissues, Blood ([1]; mouse, 90 minutes): 0.005 and 0.007
- Distribution in murine tissues, Brain ([1]; mouse, 90 minutes): 0.003 and 0.005
- Distribution in murine tissues, Esophagus ([1]; mouse, 90 minutes, Esophagus): 0.012
- Distribution in murine tissues, Heart ([1]; mouse, 90 minutes): 0.006 and 0.009
- Distribution in murine tissues, Intestine ([1]; mouse, 90 minutes): 0.014 and 0.012
- Distribution in murine tissues, Kidney ([1]; mouse, 90 minutes): 0.011 and 0.015
- Distribution in murine tissues, Liver ([1]; mouse, 90 minutes): 0.016 and 0.020
- Distribution in murine tissues, Lung ([1]; mouse, 90 minutes): 0.007 and 0.005
- Distribution in murine tissues, Muscle ([1]; mouse, 90 minutes): 0.005 and 0.009
- Distribution in murine tissues, Spleen ([1]; mouse, 90 minutes): 0.005 and 0.007
- Distribution in murine tissues, Stomach ([1]; mouse, 90 minutes): 0.007 and 0.009
- Distribution in murine tissues, Tail ([1]; mouse, 90 minutes, Tail): 0.071 and 0.051
- Distribution in murine tissues, Tibia ([1]; mouse, 90 minutes): 0.079 and 0.064
- Distribution in murine tissues, Urine ([1]; mouse, 90 minutes): 0.595 and 0.786
- Visibility of tumor in PET image (Morris 7777 hepatoma): clearly visible
- Tissue distribution, Brain ([2]; 3 hrs, Brain): 0.13 % dose/gram and 0.11 % dose/gram
- Tissue distribution, Kidney ([2]; 3 hrs, Kidney): 0.54 % dose/gram and 0.29 % dose/gram
- Tissue distribution, Liver ([2]; 3 hrs, Liver): 0.25 % dose/gram and 0.21 % dose/gram
- Tissue distribution, Muscle ([2]; 3 hrs): 0.17 % dose/gram and 0.13 % dose/gram
- Tissue distribution, Spleen ([2]; 3 hrs, Spleen): 0.17 % dose/gram and 0.13 % dose/gram
- Tissue distribution, Tumor ([2]; 3 hrs): 0.34 % dose/gram and 0.28 % dose/gram
- Tissue distribution, Muscle ([2]; 4 hrs): 0.23 % dose/gram and 0.13 % dose/gram
- Tissue distribution, Tumor ([2]; 4 hrs): 0.64 % dose/gram and 0.44 % dose/gram

SMILES: O=C(Cn1ccnc1[N+](=O)[O-])NCCCF [EF1, (2-(2-nitro-1H-imidazol-1-yl)-N-3-monofluoropropyl) acetamide]
- Affinity of existing antibodies (to EF5 and EF3) towards compound [3]: only a modest affinity
